Experiments:
Experiment in all cases: relative viability (nuclei count vs DMSO), 5 days (fraction); higher = more cells survive
[1] = compound: CS(=O)(=O)N1CCN(Cc2cc3nc(-c4cccc5[nH]ncc45)nc(N4CCOCC4)c3s2)CC1 [Pictilisib] + COc1cc2c(Oc3ccc(NC(=O)C4(C(=O)Nc5ccc(F)cc5)CC4)cc3F)ccnc2cc1OCCCN1CCOCC1 [Foretinib] (partner 0.25 µM)
Procedure, shortened: (§1)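 Lung cancer cell lines in 1536-well plates got either a single drug or a fixed anchor-drug dose together with five library-drug doses (not always all listed) in √10 steps, by pin tool, on the day after seeding. Nuclei were counted after 5 days, and relative viability is the treated-to-vehicle ratio of nuclei counts. Values are medians of duplicate plates.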

[2] = compound: CS(=O)(=O)N1CCN(Cc2cc3nc(-c4cccc5[nH]ncc45)nc(N4CCOCC4)c3s2)CC1 [Pictilisib] + O=C(c1cc(Cc2n[nH]c(=O)c3ccccc23)ccc1F)N1CCN(C(=O)C2CC2)CC1 [Olaparib] (partner 8 µM)
Procedure, shortened: as §1

[3] = compound: CS(=O)(=O)N1CCN(Cc2cc3nc(-c4cccc5[nH]ncc45)nc(N4CCOCC4)c3s2)CC1 [Pictilisib] + C[C@]1(O)C[C@@H](c2nc(-c3ccc4ccc(-c5ccccc5)nc4c3)c3c(N)nccn32)C1 [Linsitinib] (partner 1 µM)
Procedure, shortened: as §1

[4] = compound: NC1(c2ccc(-c3nc4ccn5c(=O)[nH]nc5c4cc3-c3ccccc3)cc2)CCC1 [MK-2206] + Cc1nc(NC(=O)N2CCC[C@H]2C(N)=O)sc1-c1ccnc(C(C)(C)C(F)(F)F)c1 [Alpelisib] (partner 2 µM)
Procedure, shortened: as §1

[5] = compound: CS(=O)(=O)N1CCN(Cc2cc3nc(-c4cccc5[nH]ncc45)nc(N4CCOCC4)c3s2)CC1 [Pictilisib] + COc1cccc2cc(-c3nc([C@H]4CC[C@H](C(=O)O)CC4)n4ncnc(N)c34)[nH]c12 [OSI-027] (partner 0.5 µM)
Procedure, shortened: as §1

Cell Line | relative viability ([1]; first compound 0.02 µM) | relative viability ([1]; first compound 0.06325 µM) | relative viability ([1]; first compound 0.6325 µM) | relative viability ([1]; first compound 2 µM) | relative viability ([2]; first compound 0.02 µM) | relative viability ([2]; first compound 0.06325 µM) | relative viability ([2]; first compound 0.6325 µM) | relative viability ([2]; first compound 2 µM) | relative viability ([3]; first compound 0.02 µM) | relative viability ([3]; first compound 0.06325 µM) | relative viability ([3]; first compound 0.6325 µM) | relative viability ([3]; first compound 2 µM) | relative viability ([4]; first compound 0.01 µM) | relative viability ([4]; first compound 0.03162 µM) | relative viability ([4]; first compound 0.3162 µM) | relative viability ([4]; first compound 1 µM) | relative viability ([5]; first compound 0.02 µM) | relative viability ([5]; first compound 0.06325 µM) | relative viability ([5]; first compound 0.6325 µM) | relative viability ([5]; first compound 2 µM)
LCLC-103H | 0.77 | 0.634 | 0.403 | 0.393 | 0.722 | 0.851 | 0.701 | 0.475 | 1.14 | 1.14 | 0.814 | 0.716 | 1.02 | 0.977 | 0.933 | 0.826 | 0.494 | 0.438 | 0.287 | 0.262
LK-2 | 0.999 | 0.885 | 0.812 | 0.347 | 0.523 | 0.588 | 0.485 | 0.304 | 0.609 | 0.537 | 0.526 | 0.426 | 0.977 | 1.42 | 1.13 | 1.06 | 0.183 | 0.208 | 0.15 | 0.142
LOU-NH91 | 0.73 | 0.886 | 0.834 | 0.738 | 0.946 | 0.908 | 0.875 | 0.695 | 1.02 | 0.918 | 0.798 | 0.557 | 0.73 | 0.796 | 0.667 | 0.682 | 0.747 | 0.757 | 0.666 | 0.464
LU99A | 1.04 | 0.866 | 0.674 | 0.464 | 0.273 | 0.301 | 0.254 | 0.216 | 0.576 | 0.468 | 0.326 | 0.244 | 0.569 | 0.559 | 0.396 | 0.472 | 0.286 | 0.262 | 0.263 | 0.214
LXF-289 | 1.01 | 0.931 | 0.957 | 0.926 | 1.1 | 1.14 | 1.03 | 0.631 | 0.989 | 0.95 | 0.973 | 0.771 | 1.06 | 1.09 | 1.02 | 1 | 0.817 | 0.827 | 0.566 | 0.397
NCI-H23 | 0.919 | 0.94 | 0.778 | 0.437 | 0.298 | 0.389 | 0.355 | 0.198 | 0.632 | 0.641 | 0.605 | 0.423 | 0.705 | 0.805 | 0.784 | 0.779 | 0.708 | 0.625 | 0.392 | 0.25
NCI-H322M | 0.936 | 0.985 | 0.792 | 0.559 | 0.76 | 0.838 | 0.756 | 0.525 | 0.82 | 0.837 | 0.623 | 0.656 | 0.864 | 0.79 | 0.732 | 0.701 | 0.546 | 0.538 | 0.366 | 0.392
NCI-H358 | 0.749 | 0.763 | 0.548 | 0.274 | 0.627 | 0.729 | 0.479 | 0.271 | 0.681 | 0.685 | 0.464 | 0.393 | 0.9 | 0.837 | 0.65 | 0.563 | 0.684 | 0.664 | 0.357 | 0.127
NCI-H441 | 0.929 | 0.749 | 0.745 | 0.539 | 0.653 | 0.606 | 0.493 | 0.346 | 0.58 | 0.581 | 0.414 | 0.325 | 0.697 | 0.742 | 0.453 | 0.661 | 0.486 | 0.552 | 0.38 | 0.307
NCI-H460 | 1.01 | 0.978 | 0.883 | 0.243 | 0.425 | 0.436 | 0.395 | 0.173 | 0.78 | 0.733 | 0.154 | 0.0347 | 0.481 | 0.419 | 0.256 | 0.231 | 0.612 | 0.576 | 0.212 | 0.0454
NCI-H520 | 0.695 | 0.694 | 0.4 | 0.244 | 0.387 | 0.323 | 0.186 | 0.118 | 0.975 | 1.09 | 0.56 | 0.208 | 0.939 | 0.819 | 0.561 | 0.355 | 0.239 | 0.332 | 0.156 | 0.171
NCI-H596 | 0.603 | 0.735 | 0.454 | 0.283 | 0.621 | 0.642 | 0.567 | 0.338 | 1.02 | 0.853 | 0.643 | 0.337 | 0.518 | 0.623 | 0.401 | 0.473 | 0.719 | 0.729 | 0.353 | 0.296
NCI-H647 | 1.05 | 0.997 | 1.15 | 0.758 | 0.661 | 0.659 | 0.411 | 0.219 | 1.16 | 1.15 | 1.02 | 0.439 | 1.39 | 1.24 | 1.07 | 0.851 | 0.598 | 0.709 | 0.403 | 0.182
NCI-H650 | 0.984 | 1.09 | 1 | 0.877 | 0.372 | 0.37 | 0.44 | 0.348 | 0.979 | 1.03 | 0.809 | 0.633 | 1.09 | 1.15 | 1.11 | 0.983 | 0.563 | 0.555 | 0.425 | 0.321
NCI-H661 | 1.01 | 1.06 | 1.05 | 0.645 | 0.85 | 0.746 | 0.815 | 0.563 | 0.527 | 0.428 | 0.455 | 0.233 | 0.745 | 1.07 | 0.688 | 0.473 | 0.687 | 0.682 | 0.499 | 0.261
NCI-H727 | 0.76 | 0.843 | 0.672 | 0.467 | 0.796 | 0.801 | 0.72 | 0.548 | 0.267 | 0.318 | 0.228 | 0.258 | 0.636 | 0.571 | 0.404 | 0.456 | 0.741 | 0.649 | 0.548 | 0.333
NCI-H838 | 0.973 | 0.895 | 0.929 | 0.45 | 0.775 | 0.718 | 0.603 | 0.293 | 1.05 | 0.891 | 0.891 | 0.448 | 1.02 | 1.02 | 1.01 | 0.943 | 0.328 | 0.308 | 0.242 | 0.189
NCI-H1355 | 0.931 | 0.868 | 0.849 | 0.398 | 0.718 | 0.727 | 0.651 | 0.413 | 0.759 | 0.678 | 0.744 | 0.402 | 0.886 | 0.813 | 0.789 | 0.783 | 0.412 | 0.358 | 0.232 | 0.237
NCI-H1395 | 0.966 | 1.01 | 0.962 | 0.588 | 0.514 | 0.439 | 0.367 | 0.367 | 1.15 | 1.11 | 0.836 | 0.597 | 1.1 | 1.13 | 0.926 | 0.825 | 0.796 | 0.658 | 0.568 | 0.392
NCI-H1437 | 1.23 | 1.29 | 1.36 | 0.96 | 0.635 | 0.67 | 0.71 | 0.546 | 0.975 | 1.05 | 0.662 | 0.447 | 0.983 | 0.979 | 0.764 | 0.83 | 0.855 | 0.685 | 0.619 | 0.289
NCI-H1651 | 0.764 | 0.609 | 0.678 | 0.572 | 0.18 | 0.187 | 0.21 | 0.191 | 0.922 | 0.953 | 0.817 | 0.616 | 0.921 | 0.906 | 0.938 | 0.898 | 0.643 | 0.584 | 0.565 | 0.291
NCI-H1666 | 0.987 | 0.968 | 0.914 | 0.66 | 0.751 | 0.762 | 0.813 | 0.756 | 0.744 | 0.696 | 0.608 | 0.431 | 0.957 | 0.89 | 0.729 | 0.735 | 0.877 | 0.858 | 0.636 | 0.477
NCI-H1734 | 0.918 | 0.641 | 0.579 | 0.35 | 0.582 | 0.581 | 0.477 | 0.215 | 0.901 | 0.797 | 0.615 | 0.332 | 0.709 | 0.625 | 0.451 | 0.521 | 0.552 | 0.554 | 0.291 | 0.224
NCI-H1755 | 0.901 | 0.883 | 0.778 | 0.58 | 0.872 | 0.84 | 0.806 | 0.403 | 1.02 | 0.975 | 0.906 | 0.53 | 0.919 | 0.93 | 0.881 | 0.863 | 0.684 | 0.666 | 0.41 | 0.279
NCI-H1793 | 0.563 | 0.448 | 0.415 | 0.21 | 0.812 | 0.613 | 0.331 | 0.167 | 0.829 | 0.819 | 0.554 | 0.336 | 0.721 | 0.816 | 0.634 | 0.727 | 0.255 | 0.236 | 0.185 | 0.149
NCI-H1915 | 1.07 | 1.12 | 1.1 | 1.02 | 0.257 | 0.277 | 0.28 | 0.225 | 1.07 | 1.06 | 1.12 | 1.07 | 1.05 | 1.1 | 1.04 | 1.08 | 0.618 | 0.616 | 0.639 | 0.533
NCI-H1944 | 0.866 | 0.737 | 0.627 | 0.382 | 0.395 | 0.381 | 0.368 | 0.232 | 1.09 | 1.38 | 0.786 | 0.643 | 0.912 | 0.834 | 0.833 | 0.752 | 0.403 | 0.345 | 0.249 | 0.179
NCI-H1975 | 0.834 | 0.902 | 0.603 | 0.25 | 0.764 | 0.818 | 0.523 | 0.248 | 0.781 | 0.821 | 0.418 | 0.249 | 0.657 | 0.551 | 0.509 | 0.487 | 0.867 | 0.574 | 0.234 | 0.212
NCI-H1993 | 0.678 | 0.613 | 0.69 | 0.599 | 0.964 | 0.94 | 0.763 | 0.388 | 0.774 | 0.71 | 0.636 | 0.655 | 0.73 | 0.668 | 0.663 | 0.652 | 0.514 | 0.47 | 0.592 | 0.646
NCI-H2009 | 1.28 | 1.17 | 1.13 | 0.812 | 0.743 | 0.634 | 0.592 | 0.422 | 1.21 | 1.18 | 1.16 | 0.799 | 1.16 | 1.17 | 1.14 | 1.12 | 0.656 | 0.583 | 0.319 | 0.188
